We go through 11 compounds from ChEMBL document CHEMBL3244148, “Agonist effects of beta-phenethylamines on the noradrenergic cyclic adenosine 3',5'-monophosphate generating system in rat limbic forebrain. Stereoisomers of p-hydroxynorephedrine” (J Med Chem, 1977).

Counter-ions that a name gives are not always drawn. Activity calls are given as the source filed them. No cut-off for these calls is given here.

For one experiment, the species on record is Rattus norvegicus. Put plainly: Agonist activity at noradrenergic receptor in Sprague-Dawley rat limbic forebrain assessed as increase in c-AMP production up to 10^-4 M incubated for 10 mins. In kind it is tissue-based. The note with it: Limbic system.
In the case of `C[C@H](N)[C@H](O)c1cccc(O)c1`, the outcome was inactive. The same measure, in the same setting: with `NCC(O)c1ccc(O)cc1` (racemic) the entry was “inactive”.

Turning to `NCCc1ccc(O)c(O)c1`, the result was inactive. `C[C@H](N)Cc1ccc(O)cc1`: the outcome was inactive. The same measure, in the same setting: with `C[C@H](N)Cc1ccccc1` the entry was “inactive”. The same measure, in the same setting: with `C[C@H](N)[C@@H](O)c1ccc(O)cc1` the entry was “inactive”; with `C[C@H](N)[C@H](O)c1ccc(O)cc1`, “inactive”.

Test system in a further experiment: not listed separately
Put plainly: Agonist activity at noradrenergic receptor in Sprague-Dawley rat limbic forebrain assessed as increase in c-AMP production incubated for 10 mins.
Conditions: not given
What is called EC50 is the concentration at which the effect is half-maximal. In the case of `CNC[C@H](O)c1ccc(O)c(O)c1` [EPINEPHRINE BITARTRATE], the EC50 came out at 5 µM. Same read-out and setting: with `CC(N)C(O)c1ccc(O)c(O)c1` (racemic) [NORDEFRIN HYDROCHLORIDE] the figure was 10 µM. On the same count and under the same terms, with `CNC[C@@H](O)c1ccc(O)c(O)c1` the figure was above 100 µM. The same measure, in the same setting: with `CC(C)NC[C@H](O)c1ccc(O)c(O)c1` the figure was 5 µM.
